According to publication PMC8263619, “Functional characteristics of a novel odorant binding protein in the legume pod borer, Maruca vitrata” (Scientific Reports, 2021):

Assays:
MvitOBP3 protein = test: Fluorescence competitive binding assay with 1-NPN probe; design: species or system Maruca vitrata; settings: recombinant MvitOBP3, 1-NPN fluorescent probe; for IC50: read-out: IC50, ligand concentration displacing 50% of the fluorescence intensity of the MvitOBP/N-phenyl-1-naphthylamine complex; for Ki: read-out: Ki, dissociation constant
Experimental: The fluorescence measurement takes advantage of the fluorescent properties of the dye, 1-NPN (N-Phenyl-1-naphthylamine, CAS 90-30-2) and is performed by Hitachi F-4500. The wavelength of excitation light was 337 nm, the range of scanning emission wavelength was 350–500 nm, and the slit width was 5 nm. […] Add 2 mL of the protein with a final concentration of 2 μmol/L to a 1 cm, four-sided quartz cup, then add 1-NPN (1 mM/L) to the final concentration is 2–24 μmol/L. And recorded the maximum fluorescence value and determine the protein dissociation constant K1-NPN.
In fluorescence competitive binding assay, the 1-NPN was used as the fluorescent probe, and the dissociation constant (Ki) values of the MvitOBP3/1-NPN complexes were calculated according to the changes in the fluorescence intensity (Fig. 5A). […] These seventeen volatile ligands from host-plant were selected to test binding affinities of MvitOBP3 (Fig. 5 and Table 2).

MvitGOBP1 = target: MvitGOBP1; design: method as in PMID 26517714; settings: cited from earlier work
MvitGOBP2 protein = target: MvitGOBP2 protein; design: method as in PMID 26517714; settings: cited from earlier work

| IC50 (MvitOBP3 protein) [µM] | Ki (MvitOBP3 protein) [µM] | Structure (SMILES) | Ki (MvitGOBP1) [µM] | Ki (MvitGOBP2 protein) [µM] |
| --- | --- | --- | --- | --- |
| 21.2 | 18.7 | CCCCCCCCOC(=O)CCC [Butanoic acid octyl ester] |  | 8.5 |
| 29.3 | 25.9 | CCc1ccc(CC)cc1 [1,4-diethylbenzene] |  |  |
| 21.4 | 18.9 | CC(=O)c1ccc(C)cc1C [1-(2,4-Dimethylphenyl)-ethanone] |  |  |
| 11.1 | 9.79 | CCCCOC(=O)CCC [Butanoic acid butyl ester] | 12.5 |  |
| 24.2 | 21.4 | O=Cc1ccccc1O [2-hydroxybenzaldehyde] |  |  |
| 12.6 | 11.2 | Oc1cccc2[nH]ccc12 [1H-indol-4-ol] | 10.9 |  |
| 41.8 | 37 | CC(=O)c1ccccc1 [Acetophenone] |  |  |
| 21.8 | 19.3 | Cc1cc(C)cc(C(C)(C)C)c1 [1-(1,1-Dimethylethyl)-3,5-dimethylbenzene] |  |  |
| 22.8 | 20.1 | CCc1ccc(C=O)cc1 [4-ethylbenzaldehyde] |  |  |
| 33.6 | 29.7 | CCc1cccc(CC)c1 [1,3-diethylbenzene] |  |  |
| 9.4 | 8.31 | C=C(C)C1CC=C(C)CC1 (stereo not shown) [Limonene] | 13.8 |  |

| Structure (SMILES) | IC50 (MvitOBP3 protein) [µM] | Ki (MvitOBP3 protein) [µM] | Ki (MvitGOBP1) [µM] | Ki (MvitGOBP2 protein) [µM] |
| --- | --- | --- | --- | --- |
| CCC(=O)c1ccc(CC)cc1 [4-ethylpropiophenone] | 26.7 | 23.6 | 14.2 |  |
| CC(=O)c1ccc(C(C)=O)cc1 [1,4-diacetyl benzene] | 28.4 | 25.1 |  |  |
| CC(=O)c1ccc(O)c(C)c1 [4-hydroxy-3-methylacetophenone] | 22.7 | 20.1 |  |  |
| CCc1ccc(C(C)=O)cc1 [1-(4-ethylphenyl)-ethanone] | 24.1 | 21.3 |  |  |
| CC(C=O)Cc1ccccc1 (stereo not shown) [2-methyl-3-phenylpropanal] | 10.6 | 9.38 |  | 3.81 |
| O=Cc1ccccc1 [Benzaldehyde] | 43.3 | 38.3 |  |  |
